Data set [1] has as its system homovanillic acid in corpus striatum. Kind of data set: Homovanillic acid level in corpus striatum of the rat brain. It counts as in vivo.
In data set [2] the test system is spontaneous locomotor activity in mice. Kind of data set: Inhibition of spontaneous locomotor activity in mice. The class given is in vivo. To be noted: for times less active than compound A, inhibition of spontaneous locomotor activity: mice, relative to compound A.
Data set [3] deals with dopamine levels in corpus striatum. As to the kind of experiment: Dopamine level in corpus striatum of the rat brain. It counts as in vivo. The following applies: for dopamine level, striatum: 20 mg/kg, in words.
The subject of data set [4] is dopamine levels in tuberculum olfactorium. Kind of data set: Dopamine level in tuberculum olfactorium of the rat brain. The class given is in vivo. The following applies: 20 mg/kg, in words.
The test system of another data set is rats. As to the kind of experiment: Cataleptic activity in rats. To be noted: for cataleptic activity: rats, 50 mg/kg, oral.
In data set [5] the test system is apomorphine-elicited agitation and stereotypes in rats. Kind of data set: Antiapomorphine action in rats. The following applies: for effect on apomorphine-elicited agitation / effect on apomorphine-elicited stereotypes: 20 and 50 mg/kg, by 2 h after administration; for antiapomorphine effect: 50 mg/kg, oral. It counts as in vivo.
Data set [6] is described as follows: Overall antidopaminergic / neuroleptic activity and pharmacological profile. To be noted: in words.
For another data set, the system named is motility of mice. To be noted: Mus musculus, po, read-out: medium effective dose, motility of mice.
The next data set in a line: in vivo. The following applies: mouse, po.
A further data set is described as follows: Solubility in water. The class given is physicochemical.
Data set [7] can be described thus: Rota-rod test in rats (motor coordination). To be noted: rat, po. Background: Falling from the rotarod earlier than controls is read as motor impairment.
The nature of data set [8]: Rota-rod test in mice (motor coordination). The following applies: mouse, po.
Data set [9] in a line: Acute toxicity in rats (oral). The following applies: rat, in vivo.
In data set [10] the target is T1, dopamine receptors in corpus striatum (Rattus norvegicus, UniProt P61169).
T1 construct: dopamine receptors in the two brain structures; from tissue; host or cells: rat brain, corpus striatum
T1 sequence (P61169 whole entry): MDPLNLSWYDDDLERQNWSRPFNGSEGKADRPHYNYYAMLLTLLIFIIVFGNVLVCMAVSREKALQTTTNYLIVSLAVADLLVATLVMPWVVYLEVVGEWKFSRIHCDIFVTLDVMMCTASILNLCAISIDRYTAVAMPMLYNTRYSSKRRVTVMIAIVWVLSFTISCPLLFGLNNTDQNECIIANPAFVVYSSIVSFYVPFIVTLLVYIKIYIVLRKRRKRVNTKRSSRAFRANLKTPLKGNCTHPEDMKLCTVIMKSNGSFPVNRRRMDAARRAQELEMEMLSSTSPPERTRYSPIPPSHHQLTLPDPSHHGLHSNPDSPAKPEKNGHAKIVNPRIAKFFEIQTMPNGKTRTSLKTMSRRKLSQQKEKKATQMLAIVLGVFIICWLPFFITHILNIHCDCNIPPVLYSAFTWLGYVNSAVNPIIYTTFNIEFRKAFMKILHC
As to the kind of experiment: Inhibition of 3H-spiperone binding, corpus striatum.

Data set [11] has as its system homovanillic acid in tuberculum olfactorium. As to the kind of experiment: Homovanillic acid level in tuberculum olfactorium of the rat brain. The class given is in vivo. The following applies: 3 h after the administration.
For data set [12], the system named is apomorphine emesis in dogs. Kind of data set: Inhibition of apomorphine emesis in dogs. The class given is in vivo.
For a further data set, the system named is mice. To be noted: mouse, in vivo, po.
The subject of data set [13] is apomorphine-induced climbing behavior of mice. Kind of data set: Apomorphine-induced climbing behavior of mice. The class given is in vivo.
Data set [14] has as its system cataleptogenic effect of perphenazine in rats. Kind of data set: Potentiation of the cataleptogenic effect of perphenazine in rats. The following applies: 50 mg/kg, oral. The class given is in vivo. As for the experimental part:
A further compound of the invention is 1-(2-chloro-7-fluoro-10, 11-dihydrodibenzo (b,f) thiepin-10-yl)-4-(2-(1,3-dioxolan-2-yl)ethyl)piperazine, which also was tested as the methanesulfonate (compound B). This compound and the following ones were likewise administered orally, and the data is calculated per bases.
(§1) The invention further includes 1-(2-chloro-7-fluoro-10, 11-dihydrodibenzo (b,f) thiepin-10-yl)-4-(2-(1,3-dioxan-2-yl) ethyl)piperazine, which is also tested as the methanesulfonate (compound C).

The nature of data set [15]: Acute toxicity in mice, intravenous administration. To be noted: mouse, in vivo. As for the experimental part: as §1

pIC50: −log10 of the molar value.

For the compound `CN1CCN(C2=Nc3cc(Cl)ccc3Nc3ccccc32)CC1` [clozapine, 8-chloro-11-(4-methylpiperazine)-5H-dibenzo (b,e)-(1,4)diazepine, reference compound], the “increase of homovanillic acid level in striatum” value (from here on “increase”) in data set [1] (rat, 20 mg/kg, 3 h) is recorded as 200%. Further, in data set [2], the “times less active than compound A, inhibition of spontaneous locomotor activity” value is “approx. 4 times”. The “dopamine level, striatum” value in data set [3] is “slightly decreases dopamine levels”. For the same compound, the “dopamine level, tuberculum olfactorium” value in data set [4] was “slightly decreases dopamine levels”. In the data set with rats, the cataleptic activity result is on record as “behaves similarly”. Moreover, in data set [5], the “effect on apomorphine-elicited agitation” value is given as “effects neither agitation nor stereotypes” and the “effect on apomorphine-elicited stereotypes” value is on record as “effects neither agitation nor stereotypes”.

The term LD50 denotes the dose expected to kill half of the subjects tested. Read a high LD50 as a less toxic substance. As for `NC(CCN1CCN(C2Cc3cc(Cl)ccc3Sc3cc(F)ccc32)CC1)=NO` (stereo not shown) [Compound D], in data set [1] (rat, 80 mg/kg, 3 h, oral), the “increase” value was “more than 300%”. In [6], the “pharmacological profile compared with compound A” value is recorded as “approximately comparable”. The ED50 in the data set with motility of mice was found to be 50 mg/kg. The compound further returned a median lethal dose (LD50) in “in vivo” of 320 mg/kg.

As usually defined, the TD50 is the dose at which the toxic effect under study appears in half of the subjects. A lower TD50 goes with harm at a small dose. A word on the pIC50: it is the negative decadic logarithm of the IC50, by convention in mol/L. Low readings indicate a high IC50, high ones a low IC50. For the compound `NC(=O)CCN1CCN(C2Cc3cc(Cl)ccc3Sc3cc(F)ccc32)CC1` (stereo not shown) [Compound A], the minimal effective dose came to 5 mg/kg in [1] (Rattus norvegicus, po, 3 h, read-out: threshold dose significantly increasing homovanillic acid concentration, corpus striatum); 2 mg/kg in [11] (oral, read-out: threshold dose significantly increasing homovanillic acid concentration, tuberculum olfactorium); 2 mg/kg in [12] (Canis lupus familiaris, oral, by 4 h after the administration, read-out: threshold activity dose, inhibition of apomorphine emesis). Also, the “level of homovanillic acid, corpus striatum” value in [1] (rat, 3 h after the administration) is reported as “intensively increases”. Also, the ED50 in data set [2] (Mus musculus, po, read-out: medium active dose D50, inhibition of spontaneous locomotor activity) worked out at 1.05 mg/kg; in [13] (Mus musculus, po, read-out: medium effective dose PD50, apomorphine-induced climbing behavior) it was 2.9 mg/kg. Besides, the solubility in water entry is listed as “excellently water-soluble” in “Solubility in water” (monomethanesulfonate) and “poorly soluble in water” in “Solubility in water” (neutral maleate). In addition, the “dopamine level, striatum” value in data set [3] is on record as “does not significantly affect the dopamine levels”. The figures for the TD50 in [7] and in [8] were 19.5 mg/kg and 2 mg/kg, respectively. Further, in data set [9], the median lethal dose (LD50) turned out to be 654 mg/kg. Moreover, the “dopamine level, tuberculum olfactorium” value in data set [4] was “does not significantly affect the dopamine levels”. The same compound gave a negative logarithm of the IC50 (pIC50) in data set [10] of 7.30. Further, the “level of homovanillic acid, tuberculum olfactorium” value in data set [11] is “intensively increases”. The median lethal dose (LD50) at 48 h in the data set “in vivo” (LD50, female mice, per base) was 316 mg/kg; in “in vivo” (LD50, male mice, per base), 336 mg/kg. Also, the “cataleptic activity (general statement)” value with rats (compounds of the invention, in words) is “noncataleptic”. In the data set with rats, the cataleptic activity entry is given as “lacks cataleptic activity”. For the same compound, the “inhibition of apomorphine emesis, duration” value in data set [12] (within 24 h) is recorded as “within 24 h the effect disappears”. Also, the “LD50 on longer evaluation of the toxicity test” value in the data set with mice is “lower LD50 values”. For the same compound, in data set [5], the “effect on apomorphine-elicited agitation” value is “significantly inhibits the agitation”. The “effect on apomorphine-elicited stereotypes” value in data set [5] was “does not affect the apomorphine-elicited stereotypes”.

On to `CN(C)CCCN1c2ccccc2Sc2ccc(Cl)cc21` [chlorpromazine, reference compound], for which, in data set [2], the “times less active than compound A, inhibition of spontaneous locomotor activity” value turned out to be 5 times. Further, in data set [13] (mice, % of activity of compound A), the “activity relative to compound A, climbing behavior” value is recorded as “approx. 50%”.

For `Fc1ccc2c(c1)Sc1ccc(Cl)cc1CC2N1CCN(CCC2OCCCO2)CC1` (stereo not shown) [Compound C, 1-(2-chloro-7-fluoro-10, 11-dihydrodibenzo (b,f)thiepin-10-yl)-4-(2-(1,3-dioxan-2-yl)ethyl)piperazine], the “increase” value in data set [1] (rat, 20 mg/kg, 3 h) is 400%. Moreover, the “potentiation of the cataleptogenic effect of perphenazine” value in data set [14] is on record as “only mildly potentiates the cataleptogenic effect of perphenazine”. In addition, the “pharmacological profile compared with compound A” value in data set [6] is “approximately comparable”. The solubility in water result is “excellently water-soluble” in “Solubility in water” (monomethanesulfonate); “poorly soluble in water” in “Solubility in water” (neutral maleate); “only very slightly soluble in water” in “Solubility in water” (neutral maleate, listed as Example 4). In [3], the “dopamine level, striatum” value was “the dopamine level is not affected”. Also, the TD50 in data set [8] is 2.86 mg/kg. For the same compound, the “affinity to dopamine receptors in striatum, release of 3H spiperone” value in data set [10] (striatum, in words, compared with clozapine) is listed as “approximately the same as with clozapine”. For the same compound, the median lethal dose (LD50) in “in vivo” (LD50, mice, per base) is greater than 500 mg/kg; in data set [15], 77.6 mg/kg. In addition, in the data set on rats, the cataleptic activity entry is “no cataleptic effect”. The antiapomorphine effect entry in data set [5] is reported as “does not reveal any antiapomorphine effect”.

As for `Fc1ccc2c(c1)Sc1ccc(Cl)cc1CC2N1CCN(CCC2OCCO2)CC1` (stereo not shown) [Compound B, 1-(2-chloro-7-fluoro-10, 11-dihydrodibenzo (b,f)thiepin-10-yl)-4-(2-(1,3-dioxolan-2-yl)ethyl)piperazine], the “increase” value in [1] (rat, 80 mg/kg, 3 h, oral) turned out to be 504%. Further, the “potentiation of the cataleptogenic effect of perphenazine” value in data set [14] is “only mildly potentiates the cataleptogenic effect of perphenazine”. Also, the “pharmacological profile compared with compound A” value in data set [6] was “approximately comparable”. For the same compound, the solubility in water result is on record as “readily water-soluble” in “Solubility in water” (monomethanesulfonate); “excellently water-soluble” in the data set “Solubility in water” (monomethanesulfonate, listed as Example 3); “slightly soluble in water” in the data set “Solubility in water” (neutral maleate). Besides, the solubility in the data set “Solubility in water” (water, monomethanesulfonate, aqueous solution, read-out: concentration of aqueous solutions provided) was greater than 100 mg/mL. In addition, in data set [3] (80 mg/kg, 3 h), the “lowering of dopamine level in striatum” value was 25%. In data set [8], the TD50 came out at 3.5 mg/kg. Besides, the median lethal dose (LD50) in “in vivo” (LD50, mice, per base) stood at 350 mg/kg. For the same compound, the cataleptic activity entry in the data set with rats was “no cataleptic effect”. Besides, the antiapomorphine effect result in data set [5] is on record as “only a slight indication of antiapomorphine effect”.

The record behind these values is US4678788A, “N-substituted 2-chloro-7-fluoro-10-piperazino-10,11-dihydrodibenzo (B,F) thiepins and acid addition salts thereof” (SPOFA, Spojene Podniky Pro Zdravotnickou Vyrobu, priority 1985, dated 1987).
